Source: the OligoGym collection
HELM strings list units from the 5' end as sugar, base in round brackets, then linkage (d deoxyribose, r ribose, m 2'-O-methyl, p phosphodiester). Strings are as the collection lists them; they lack the last nucleoside at the 3' end of the tested compound. [moe] = 2'-O-(2-methoxyethyl) (MOE); [sp] = phosphorothioate linkage; [m5C] = 5-methylcytosine

target: GFAP; test: mouse, dose not given; settings: ASO

Substance | 3 h FOB score
RNA1{[moe](T)[sp].[moe](T)p.[moe](G)p.[moe](A)p.[moe](G)p.d(A)[sp].d(T)[sp].d(A)[sp].d(T)[sp].d([m5C])[sp].d(T)[sp].d(T)[sp].d(G)[sp].d(T)[sp].d(G)[sp].[moe](A)p.[moe]([m5C])p.[moe]([m5C])[sp].[moe](T)}$$$$ (last 3' nucleoside missing) | 3 score 0-7
RNA1{[moe](T)[sp].[moe](T)p.[moe](G)p.[moe](G)p.[moe](T)p.[moe](G)p.d([m5C])[sp].d(T)[sp].d(T)[sp].d(T)[sp].d(T)[sp].d(G)[sp].d([m5C])[sp].d([m5C])[sp].d([m5C])[sp].d([m5C])[sp].[moe]([m5C])p.[moe](T)[sp].[moe](G)}$$$$ (last 3' nucleoside missing) | 1 score 0-7
RNA1{[moe](T)[sp].[moe](T)p.[moe](G)p.[moe](G)p.[moe](T)p.d(G)[sp].d([m5C])[sp].d(T)[sp].d(T)[sp].d(T)[sp].d(T)[sp].d(G)[sp].d([m5C])[sp].d([m5C])[sp].d([m5C])[sp].[moe]([m5C])p.[moe]([m5C])p.[moe](T)[sp].[moe](G)}$$$$ (last 3' nucleoside missing) | 0 score 0-7
RNA1{[moe](T)[sp].[moe](T)p.[moe](G)p.[moe](G)p.[moe]([m5C])[sp].d(A)[sp].d(G)[sp].d(T)[sp].d(A)[sp].d(T)[sp].d(T)[sp].d(A)[sp].d([m5C])[sp].[moe]([m5C])p.[moe](T)p.[moe]([m5C])[sp].[moe](T)}$$$$ (last 3' nucleoside missing) | 0 score 0-7
RNA1{[moe](T)[sp].[moe](T)p.[moe](G)p.[moe](G)p.[moe]([m5C])[sp].d(A)[sp].d(G)[sp].d(T)[sp].d(A)[sp].d(T)[sp].d(T)[sp].d(A)[sp].d([m5C])[sp].d([m5C])[sp].d(T)[sp].[moe]([m5C])p.[moe](T)p.[moe](A)[sp].[moe]([m5C])}$$$$ (last 3' nucleoside missing) | 2 score 0-7
RNA1{[moe](T)[sp].[moe](T)p.[moe](G)p.[moe](G)p.[moe]([m5C])p.[moe](A)p.d(G)[sp].d(T)[sp].d(A)[sp].d(T)[sp].d(T)[sp].d(A)[sp].d([m5C])[sp].d([m5C])[sp].d(T)[sp].d([m5C])[sp].[moe](T)p.[moe](A)[sp].[moe]([m5C])}$$$$ (last 3' nucleoside missing) | 0 score 0-7
RNA1{[moe](T)[sp].[moe](T)p.[moe](G)p.[moe](G)p.[moe]([m5C])p.d(A)[sp].d(G)[sp].d(T)[sp].d(A)[sp].d(T)[sp].d(T)[sp].d(A)[sp].d([m5C])[sp].d([m5C])[sp].d(T)[sp].[moe]([m5C])p.[moe](T)p.[moe](A)[sp].[moe]([m5C])}$$$$ (last 3' nucleoside missing) | 0 score 0-7
RNA1{[moe](T)[sp].[moe](T)p.[moe](G)p.[moe](G)p.d(T)[sp].d(G)[sp].d([m5C])[sp].d(T)[sp].d(T)[sp].d(T)[sp].d(T)[sp].d(G)[sp].d([m5C])[sp].d([m5C])[sp].[moe]([m5C])p.[moe]([m5C])p.[moe]([m5C])p.[moe](T)[sp].[moe](G)}$$$$ (last 3' nucleoside missing) | 1 score 0-7
RNA1{[moe](T)[sp].[moe](T)p.[moe](G)p.[moe](G)p.d([m5C])[sp].d(A)[sp].d(G)[sp].d(T)[sp].d(A)[sp].d(T)[sp].d(T)[sp].d(A)[sp].d([m5C])[sp].d([m5C])[sp].[moe](T)p.[moe]([m5C])p.[moe](T)p.[moe](A)[sp].[moe]([m5C])}$$$$ (last 3' nucleoside missing) | 1 score 0-7
RNA1{[moe](T)[sp].[moe](T)p.[moe](G)p.[moe](T)p.[moe](G)[sp].d(A)[sp].d(T)[sp].d(T)[sp].d(T)[sp].d(T)[sp].d([m5C])[sp].d([m5C])[sp].d([m5C])[sp].[moe]([m5C])p.[moe](G)p.[moe](T)[sp].[moe]([m5C])}$$$$ (last 3' nucleoside missing) | 2 score 0-7
RNA1{[moe](T)[sp].[moe](T)p.[moe](G)p.[moe](T)p.[moe](G)p.[moe](A)p.d(T)[sp].d(T)[sp].d(T)[sp].d(T)[sp].d([m5C])[sp].d([m5C])[sp].d([m5C])[sp].d([m5C])[sp].d(G)[sp].d(T)[sp].[moe]([m5C])p.[moe](T)[sp].[moe](T)}$$$$ (last 3' nucleoside missing) | 4 score 0-7
RNA1{[moe](T)[sp].[moe](T)p.[moe](G)p.[moe](T)p.[moe]([m5C])[sp].d(T)[sp].d(T)[sp].d(T)[sp].d(A)[sp].d(T)[sp].d(T)[sp].d(T)[sp].d(T)[sp].[moe](T)p.[moe]([m5C])p.[moe]([m5C])[sp].[moe](T)}$$$$ (last 3' nucleoside missing) | 0 score 0-7
RNA1{[moe](T)[sp].[moe](T)p.[moe](G)p.[moe](T)p.[moe]([m5C])[sp].d(T)[sp].d(T)[sp].d(T)[sp].d(A)[sp].d(T)[sp].d(T)[sp].d(T)[sp].d(T)[sp].d(T)[sp].d([m5C])[sp].[moe]([m5C])p.[moe](T)p.[moe]([m5C])[sp].[moe](A)}$$$$ (last 3' nucleoside missing) | 1 score 0-7
RNA1{[moe](T)[sp].[moe](T)p.[moe](G)p.[moe](T)p.[moe]([m5C])p.[moe](T)p.d(T)[sp].d(T)[sp].d(A)[sp].d(T)[sp].d(T)[sp].d(T)[sp].d(T)[sp].d(T)[sp].d([m5C])[sp].d([m5C])[sp].[moe](T)p.[moe]([m5C])[sp].[moe](A)}$$$$ (last 3' nucleoside missing) | 4 score 0-7
RNA1{[moe](T)[sp].[moe](T)p.[moe](G)p.[moe](T)p.d(G)[sp].d(A)[sp].d(T)[sp].d(T)[sp].d(T)[sp].d(T)[sp].d([m5C])[sp].d([m5C])[sp].d([m5C])[sp].d([m5C])[sp].[moe](G)p.[moe](T)p.[moe]([m5C])p.[moe](T)[sp].[moe](T)}$$$$ (last 3' nucleoside missing) | 0 score 0-7
RNA1{[moe](T)[sp].[moe](T)p.[moe](G)p.[moe](T)p.d([m5C])[sp].d(T)[sp].d(T)[sp].d(T)[sp].d(A)[sp].d(T)[sp].d(T)[sp].d(T)[sp].d(T)[sp].d(T)[sp].[moe]([m5C])p.[moe]([m5C])p.[moe](T)p.[moe]([m5C])[sp].[moe](A)}$$$$ (last 3' nucleoside missing) | 2 score 0-7
RNA1{[moe](T)[sp].[moe](T)p.[moe](T)p.[moe](A)p.[moe](T)[sp].d(T)[sp].d(T)[sp].d(T)[sp].d(T)[sp].d([m5C])[sp].d([m5C])[sp].d(T)[sp].d([m5C])[sp].[moe](A)p.[moe](G)p.[moe]([m5C])[sp].[moe](G)}$$$$ (last 3' nucleoside missing) | 1 score 0-7
RNA1{[moe](T)[sp].[moe](T)p.[moe](T)p.[moe](A)p.[moe](T)[sp].d(T)[sp].d(T)[sp].d(T)[sp].d(T)[sp].d([m5C])[sp].d([m5C])[sp].d(T)[sp].d([m5C])[sp].d(A)[sp].d(G)[sp].[moe]([m5C])p.[moe](G)p.[moe](A)[sp].[moe]([m5C])}$$$$ (last 3' nucleoside missing) | 2 score 0-7
RNA1{[moe](T)[sp].[moe](T)p.[moe](T)p.[moe](A)p.[moe](T)p.[moe]([m5C])p.d(T)[sp].d(G)[sp].d(T)[sp].d(G)[sp].d([m5C])[sp].d(T)[sp].d(T)[sp].d(T)[sp].d(A)[sp].d(G)[sp].[moe](T)p.[moe](G)[sp].[moe](A)}$$$$ (last 3' nucleoside missing) | 3 score 0-7
RNA1{[moe](T)[sp].[moe](T)p.[moe](T)p.[moe](A)p.d(T)[sp].d(T)[sp].d(T)[sp].d(T)[sp].d(T)[sp].d([m5C])[sp].d([m5C])[sp].d(T)[sp].d([m5C])[sp].d(A)[sp].[moe](G)p.[moe]([m5C])p.[moe](G)p.[moe](A)[sp].[moe]([m5C])}$$$$ (last 3' nucleoside missing) | 0 score 0-7
RNA1{[moe](T)[sp].[moe](T)p.[moe](T)p.[moe](G)p.[moe](A)[sp].d(G)[sp].d(A)[sp].d(T)[sp].d(A)[sp].d(T)[sp].d([m5C])[sp].d(T)[sp].d(T)[sp].[moe](G)p.[moe](T)p.[moe](G)[sp].[moe](A)}$$$$ (last 3' nucleoside missing) | 3 score 0-7
RNA1{[moe](T)[sp].[moe](T)p.[moe](T)p.[moe](G)p.[moe](A)p.d(G)[sp].d(A)[sp].d(T)[sp].d(A)[sp].d(T)[sp].d([m5C])[sp].d(T)[sp].d(T)[sp].d(G)[sp].d(T)[sp].[moe](G)p.[moe](A)p.[moe]([m5C])[sp].[moe]([m5C])}$$$$ (last 3' nucleoside missing) | 3 score 0-7
RNA1{[moe](T)[sp].[moe](T)p.[moe](T)p.[moe](G)p.[moe](G)p.[moe]([m5C])p.d(A)[sp].d(G)[sp].d(T)[sp].d(A)[sp].d(T)[sp].d(T)[sp].d(A)[sp].d([m5C])[sp].d([m5C])[sp].d(T)[sp].[moe]([m5C])p.[moe](T)[sp].[moe](A)}$$$$ (last 3' nucleoside missing) | 0 score 0-7
RNA1{[moe](T)[sp].[moe](T)p.[moe](T)p.[moe](G)p.[moe](G)p.d(T)[sp].d(G)[sp].d([m5C])[sp].d(T)[sp].d(T)[sp].d(T)[sp].d(T)[sp].d(G)[sp].d([m5C])[sp].d([m5C])[sp].[moe]([m5C])p.[moe]([m5C])p.[moe]([m5C])[sp].[moe](T)}$$$$ (last 3' nucleoside missing) | 2 score 0-7
RNA1{[moe](T)[sp].[moe](T)p.[moe](T)p.[moe](G)p.[moe](G)p.d([m5C])[sp].d(A)[sp].d(G)[sp].d(T)[sp].d(A)[sp].d(T)[sp].d(T)[sp].d(A)[sp].d([m5C])[sp].d([m5C])[sp].[moe](T)p.[moe]([m5C])p.[moe](T)[sp].[moe](A)}$$$$ (last 3' nucleoside missing) | 1 score 0-7
RNA1{[moe](T)[sp].[moe](T)p.[moe](T)p.[moe](G)p.[moe](T)[sp].d([m5C])[sp].d(T)[sp].d(T)[sp].d(T)[sp].d(A)[sp].d(T)[sp].d(T)[sp].d(T)[sp].[moe](T)p.[moe](T)p.[moe]([m5C])[sp].[moe]([m5C])}$$$$ (last 3' nucleoside missing) | 0 score 0-7
